Laboratory results as given in US20110257186A1, “COMPOSITIONS AND METHODS FOR TREATING VISUAL DISORDERS” (priority 2010, published 2011).
“Also recorded” adds a separate entry of the source.

System: rat visual cortex
Assay: LTP in visual cortex slice
Settings: rat primary visual cortex brain slices; fEPSP amplitude after theta burst stimulation; drug infused 20 minutes before LTP induction
Description: The effect of the Ampakine, i.e. benzo[1,2,5]oxadiazol-5-yl-piperidin-1-yl-methanone, in the visual cortex was investigated using brain slices prepared from primary visual cortex to determine if this compound facilitates the induction of long-term potentiation (LTP). LTP is a well established cellular model for synaptic plasticity and the encoding of information. The visual cortex is one synapse removed from the eye and integrates visual signals generated by the retina. It is thus essential for decoding, processing and transforming visual inputs originating in the eye, and proper visual cortical function is necessary for normal vision.
Following decapitation of the anesthetized rat, the brain was rapidly removed and immersed in ice-cold artificial cerebrospinal fluid (ACSF) containing (in mM) NaCl 124, KCl 3, KH2PO4 1.25, CaCl2 3.4, MgSO4 2.5, NaHCO3 26, and D-glucose 10. A block of visual cortex was created by removing the frontal ⅔ portion of the brain and the cerebellum. […] This is repeated 2 additional times with a 1 minute inter-train interval, and the level of LTP was recorded for at least 30 min. Changes in amplitude of the synaptic response were used to measure the extent of LTP, since the amplitude was determined to be the more consistent parameter than the slope of the response. […] LTP was recorded for at least 30 min after induction.

O=C(c1ccc2nonc2c1)N1CCCCC1 [benzo[1,2,5]oxadiazol-5-yl-piperidin-1-yl-methanone]
enhancement of visual cortex long-term potentiation (LTP): dose-dependent facilitation of long-term potentiation in rat visual cortex; also recorded: marked and dose-dependent enhancement of visual cortex LTP
